From paper PMC6810216, “Human-to-Human Transmission of Influenza A(H3N2) Virus with Reduced Susceptibility to Baloxavir, Japan, February 2019” (Emerging Infectious Diseases, 2019)

Key:
[1] = system: influenza A(H3N2) viruses isolated in the 2018–19 season in Japan; assay: microbe, parasite or virus in culture; assay type: cell-based; settings: n = 83, read-out: Median IC50 + SD
[2] = target: neuraminidase (NA) of A(H3N2) of 2018–19 (Influenza A virus (H3N2), UniProt A0A193ACB1); assay type: biochemical; settings: n = 170; read-out: Median IC50 + SD

SMILES	IC50 [1] [nM]	IC50 [2] [nM]
CCC(CC)[C@H](NC(C)=O)[C@@H]1[C@H](O)[C@@H](C(=O)O)C[C@H]1N=C(N)N [Peramivir, peramivir]		0.13
